Key:
[1] = biological target: T1, rat intestinal α-glucosidase; assay: p-nitrophenyl-α-D-glucopyranoside hydrolysis, absorbance at […] nm; assay type: biochemical; conditions: 5 mM p-nitrophenyl-α-D-glucopyranoside stock (50 μL), 0.1 M phosphate pH 6.9, 25 °C; crude rat intestinal enzyme; quercetin bought as dihydrate
T1 construct: gene Mgam; native enzymes in crude supernatant of rat intestinal acetone powder (Sigma-Aldrich), EC 3.2.1.20; not resolved to one gene product

[2] = biological target: T2, rat intestinal maltase; assay: maltose hydrolysis, liberated glucose by glucose oxidase method; assay type: biochemical; conditions: maltose 0.4 mg/mL, 0.1 M phosphate pH 7.0, 37 °C, 30 min; crude rat intestinal enzyme; quercetin bought as dihydrate
T2 construct: gene Mgam; native enzymes in crude supernatant of rat intestinal acetone powder (Sigma-Aldrich); maltase activity not resolved to one gene product
Text: maltose hydrolysis, liberated glucose by glucose oxidase method on rat intestinal maltase

SMILES: O=c1c(O)c(-c2ccc(O)c(O)c2)oc2cc(O)cc(O)c12 [quercetin, 3,3′,4′,5,7-Pentahydroxyflavone dihydrate]
- IC50 [1]: 0.15 mg/mL
- IC50 [2]: 0.07 mg/mL

— article PMC3131588, “Effects of Onion (Allium cepa L.) Extract Administration on Intestinal α-Glucosidases Activities and Spikes in Postprandial Blood Glucose Levels in SD Rats Model” (International Journal of Molecular Sciences, 2011)
